Measurements taken from US20190008810A1, “METHOD FOR PREVENTION, TREATMENT AND ALLEVIATION OF INFECTIOUS DISEASES AND DISORDERS” (REPLICON HEALTH OY, priority 2016, published 2019).

Legend:
[1] = system: rat primary optic nerve astrocytes; assay: ROS generation (CellROX Green) in rat primary optic nerve astrocytes, Example 2; assay type: cell-based; settings: 14 μM
Experimental: For proving the efficacy of DGA Activation in reducing ROS in infectious disorders an in vitro study using rat primary optic nerve astrocytes has been conducted. […] As an important part of the study the cell viability was estimated 6 hours after tBHP administration by two methods, i.e. LDH and MTT assays. Cell viability was measured using the in-house MTT assay (of Experimentica Ltd., Finland) and CytoTox96 non-radioactive cytotoxicity assay (G1780, Promega) in response to oxidative stress primary optic nerve astrocytes. The production of reactive oxygen species (ROS) was measured using CellROX Green (Invitrogen) and isolate RNA in RNALater solution (Ambion). Primary optical nerve astrocytes where obtained from 4-week-old male Wister rats (6 animals' altogether) and where cultured to obtain sufficient amount of cells for the experiment. In the experiment cells where plated at 5000 cells per well and allowed to adhere for 24 hrs prior to the administration of compounds for 48 hrs (replenished every 24 hrs). After 24 hrs the compounds were removed, and readded with new medium for 1 hr, prior to the administration of 85 μM tBHP (FIG. 3c). MTT and LDH assay were performed after 6 hrs and ROS detection using CellROX green was performed over a time course of 4 hrs. D-glyceric acid was mixed into the medium in beforehand in soluble calcium salt format (DGAcs). After mixing the calcium is liberated to the medium from the D-glyceric acid. D-glycerate is formed.

HO-1, CYP2B6, PGC-1a = assay: Gene expression in primary human hepatocytes after 48 h+2 h; assay type: cell-based
Experimental: FIG. 13b: Gene Expression results from Primary Hepatocytes after 48 h+2 h of the DGA Activation vs. 0-control. […] Combined test for PGC-1a yielded P-value of some 10%. Primary human hepatocytes were purchased from Celsis In Vitro Technologies (1450 South Rolling Road Baltimore, Md. 21227, USA). Primary hepatocytes were received from three different post mortem human donators. […] This is also the case for DOO.
In this experimental model the cells in the 0-Control and in the two DGA Activation groups were normally and identically incubated before DGA Activation. Incubation the medium is changed every 24 hours. When the 48 hour+2 hour DGA Activation started, the only difference was the addition of either 1.4 μM or 14 μM of DGA to the used medium. The D-glyceric acid calcium salt was carefully mixed in to medium before the administration. Thus, it was separated from the calcium salt.

[2] = system: ethanol-dosed gastric cells; settings: in vitro study, Habe et al.; cited from earlier work
CRP = assay: Blood CRP in continuous IPA/Dry Eye disease model; assay type: in vivo, mice
Experimental: Tear volume was measured for groups 3 and 4 and later comparison results for group 2 were received. The blood samples were collected from saphenous vein on day 5 (prior the treatment) and on day 7, just prior anesthesia and during the perfusion (cardiac puncture). On day 7, the animals were terminally anesthetized and transcardially perfused. Plasma was separated in all collected blood samples and kept frozen at −80° C. until the measurements. CRP measurements were performed using mouse CRP ELISA kit. […] In addition, animals were monitored daily for general health status. The lacrimal glands were embedded into paraffin, sectioned, stained and analyzed for possible pathology.
In this Example, CRP results from 3 separate preclinical tests are presented and analyzed. […] CRP present in mouse serum samples were analyzed using mouse CRP ELISA kit (GWB-3B960E, Genway Biotech Inc.). […]
In two other CRP tests, the effect of the DGA Activation in two disease models, continuous vs. discontinuous was analyzed. […] Logarithmic change of blood CRP during the 7-day disease follow up period of each mouse in all groups was calculated and the averages are presented in FIGS. 4b and 4c. […]
Brief description of the disease models: 1) continuous IPA -model (see Example 1a) and 2) discontinuous MPTP/PD -model. […] Diet consumption per cage is monitored carefully before and during the study follow-up period. […]

[3] = 1.4 μM, combined data, P-value approximately 1%

In the case of `O=C(O)[C@H](O)CO` [DGA, D-glyceric acid], the “ROS generation vs 0-controls” value ([1]; 0 tBHP (healthy conditions)) is reported as “lower”, the “increase of average ROS generation in 15 minutes, tBHP group compared to without tBHP” value ([1]; 85 μM tBHP, 0 min to 15 min, control approximately 20%) is reported as “approximately 30%” and the “ROS level vs control groups” value ([1]; 15, 30 and 60 minutes after bolus 85 μM tBHP) is reported as “statistically significantly lower”. For the same compound, the “CYP2B6 expression vs control” value (HO-1, CYP2B6, PGC-1a; [3]) was “statistically significantly different from control”, the “HO-1 expression vs control” value (HO-1, CYP2B6, PGC-1a; [3]) was “statistically significantly different from control” and the “PGC-1a expression vs control” value (HO-1, CYP2B6, PGC-1a; combined test P-value of some 10%) was “activated compared to control”. The “increase of HO-1 expression” value (HO-1, CYP2B6, PGC-1a; primary human hepatocytes in vitro) was 50-80%, the “viability of ethanol-dosed gastric cells” value [2] was “can increase viability of ethanol-dosed gastric cells” and the “survival and health parameters” value (CRP; 4+7-day administration) was “improved survival and health parameters”. For the same compound, the “blood CRP change vs 0-control” value (CRP; 7-day IPA after 4-day priming, p-value=0.027) was “increased statistically significantly”.
